The target of this experiment is T1, CFTR (Homo sapiens, UniProt P13569).
T1 construct: primary human bronchial epithelial (HBE) cells, from non-CF individuals; endogenous in cells; host or cells: primary human bronchial epithelial cells from non-CF individuals
The experiment can be described thus: Short-circuit current recordings on primary HBE cells from non-CF individuals. The experiment is classed as cell-based. The source says: Subsequently, the ability of compounds to elicit CFTR-mediated chloride secretion was verified on primary human bronchial epithelial (HBE) cells, from non-CF individuals, in short-circuit current experiments. In this respect, it should be noticed that potentiators are also able to stimulate wild-type CFTR, provided that a submaximal cAMP-dependent stimulation is applied.[20],[22] Accordingly, cells were stimulated with a submaximal concentration of the cAMP analogue, CPT-cAMP, followed by increasing concentrations of the potentiator hit.[20],[22]
Finally, potentiator 39 and VX-770 were further evaluated in primary HBE cells from non-CF individuals, using short-circuit current measurements, to assess the ability of compounds to maximally activate CFTR function in the presence of a submaximal cAMP stimulation. After the addition of amiloride to inhibit sodium absorption through the ENaC channel, the potentiators were added at the maximal effective concentration (1 μM) after which epithelia were stimulated with a submaximal concentration of CPT-cAMP (5 μM), followed by a maximal concentration of the cAMP analogue (100 μM) (Figure 8). We then measured the extent of CFTR-mediated chloride current elicited by submaximal cAMP stimulation in the presence of a potentiator and compared it to total CFTR-mediated chloride current, determined as the current inhibited by CFTR inhibitor-172. In parallel, other epithelia were stimulated only with the two concentrations of the cAMP analogue, in the absence of a potentiator.
Primary bronchial epithelial cells were cultured as previously described.[58] In brief, epithelial cells were cultured in a serum-free medium (LHC9 mixed with RPMI 1640, 1:1) supplemented with hormones and supplements to support cell number amplification. Then, the cells were seeded at high density on porous membranes (500,000 cells for 1 cm^2 Snapwell inserts, for Ussing chamber studies; 200,000 cells for 0.33 cm^2 Mini-Transwell inserts, for TEER/PD measurements). After 24 h, the serum-free medium was replaced with Dulbecco’s modified Eagle’s medium (DMEM)/Ham’s F12 containing 2% fetal bovine serum (FBS) plus hormones and supplements. Differentiation of cells to form a tight epithelium was monitored by measuring transepithelial electrical resistance and potential difference with an epithelial voltohmmeter (EVOM1, World Precision Instruments). […]
Differentiated bronchial epithelia on Snapwell inserts were mounted in a Ussing chamber with internal fluid circulation. […] The short-circuit current was recorded with a PowerLab 4/25 (ADInstruments) analog-to-digital converter connected to a personal computer.

T1 sequence (P13569 whole entry): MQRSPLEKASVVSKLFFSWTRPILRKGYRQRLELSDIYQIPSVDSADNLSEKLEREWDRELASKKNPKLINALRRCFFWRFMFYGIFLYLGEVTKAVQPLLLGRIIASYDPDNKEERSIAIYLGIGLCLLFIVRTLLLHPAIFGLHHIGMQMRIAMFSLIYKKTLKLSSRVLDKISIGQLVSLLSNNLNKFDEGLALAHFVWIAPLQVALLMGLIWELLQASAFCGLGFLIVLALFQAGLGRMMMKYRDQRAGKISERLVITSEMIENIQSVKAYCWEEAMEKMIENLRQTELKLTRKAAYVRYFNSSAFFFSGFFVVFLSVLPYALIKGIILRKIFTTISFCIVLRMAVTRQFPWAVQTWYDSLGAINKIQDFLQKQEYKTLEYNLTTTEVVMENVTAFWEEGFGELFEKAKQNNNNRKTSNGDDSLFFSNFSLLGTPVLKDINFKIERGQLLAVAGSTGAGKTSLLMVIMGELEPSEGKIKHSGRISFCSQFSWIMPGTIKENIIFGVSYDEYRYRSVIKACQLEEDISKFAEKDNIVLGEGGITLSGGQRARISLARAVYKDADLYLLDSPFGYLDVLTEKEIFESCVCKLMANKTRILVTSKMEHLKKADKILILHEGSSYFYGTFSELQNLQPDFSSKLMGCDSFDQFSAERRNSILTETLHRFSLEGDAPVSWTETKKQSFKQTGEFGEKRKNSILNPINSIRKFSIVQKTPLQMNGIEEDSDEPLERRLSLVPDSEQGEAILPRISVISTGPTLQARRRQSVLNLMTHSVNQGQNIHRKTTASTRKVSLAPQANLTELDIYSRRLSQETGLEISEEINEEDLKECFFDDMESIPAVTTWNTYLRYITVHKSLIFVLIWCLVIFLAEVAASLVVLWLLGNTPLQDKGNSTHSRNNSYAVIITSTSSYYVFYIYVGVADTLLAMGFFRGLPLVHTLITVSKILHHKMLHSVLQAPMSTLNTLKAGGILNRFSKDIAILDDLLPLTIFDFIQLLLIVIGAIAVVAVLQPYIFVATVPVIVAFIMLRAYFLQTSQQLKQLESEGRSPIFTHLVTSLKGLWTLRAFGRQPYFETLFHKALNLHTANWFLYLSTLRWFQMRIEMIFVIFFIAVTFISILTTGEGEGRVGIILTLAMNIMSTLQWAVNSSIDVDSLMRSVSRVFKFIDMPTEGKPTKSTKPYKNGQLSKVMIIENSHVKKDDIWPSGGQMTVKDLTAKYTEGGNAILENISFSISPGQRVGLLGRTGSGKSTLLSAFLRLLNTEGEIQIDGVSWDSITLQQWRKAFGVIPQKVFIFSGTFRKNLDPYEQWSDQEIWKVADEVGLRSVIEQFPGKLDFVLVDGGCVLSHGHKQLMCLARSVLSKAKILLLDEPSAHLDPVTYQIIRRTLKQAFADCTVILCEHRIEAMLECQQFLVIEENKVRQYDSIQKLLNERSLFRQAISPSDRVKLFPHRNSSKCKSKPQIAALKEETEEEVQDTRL

Turning to `Cc1ccc(F)c2[nH]c3c(c12)CN(C(=O)c1cc(C(F)(F)F)[nH]n1)[C@H](C)C3` [Compound 39, (R)-(6-Fluoro-3,9-dimethyl-1,3,4,5-tetrahydro-2H-pyrido[4,3-b]indol-2-yl)-(5-(trifluoromethyl)-1H-pyrazol-3-yl)methanone], the “comparison of effectiveness of potentiators” value (1 μM for both compounds, Figure 8B) is “similarly effective”. Moreover, the “increase of the fraction of CFTR-mediated chloride current activated by submaximal cAMP stimulation” value (potentiator 1 μM, CPT-cAMP 5 μM, versus no potentiator) is “more than 2 fold”.
